Measured values published in patent US9028856B2, “Synergistic pesticide compositions” (priority 2008, dated 2015).

What was measured:
[1] = type: physicochemical; conditions: classified from Log P
Description: As used herein, a “partition coefficient” is defined as the ratio of concentrations of an un-ionized compound between solutions of water and octanol. To measure the partition coefficient of ionizable solutes, the pH of the aqueous phase is adjusted such that the predominant form of the compound is un-ionized. The logarithm of the ratio of the concentrations of the un-ionized solute in the solvents is referred to herein as log P or log K ow.
As noted herein, the octanol-water partition coefficient may be used to identify the cuticular penetration of a particular active ingredient. One factor in the relative speed through which any insecticide acts is the insecticide's ability to cross the insect cuticle. A determining factor for cuticle penetration is Log K ow, also known as Log P. Log K ow (Log P) is the octanol-water partition coefficient for a neutral molecule. Log P is used hereinfurther, but, as noted above, the term is synonymous with Log K ow. As previously noted, the cuticular penetration of any particular active ingredient as against a plant cuticle is not indicative of that same active ingredient's ability to penetrate an insect cuticle.
The cuticular penetration of a compound is classified as “INTERMEDIATE” when the Log P value is between about 2.0 and about 4.0.

[2] = octanol-water partition coefficient (Log K ow), Table 1; cited from earlier work
[3] = tested on: tropical house mosquito Culex quinquefasciatus (adults, 3 days old); assay: Efficacy of formulations on surfaces (glazed/unglazed tiles, plywood), ten 3 day old mosquitoes, 3 min exposure; type: in vivo; conditions: 0.002% = 1 mg DTM/m^2 on glazed tiles; EC formulation; 3 minutes exposure
Experimental: The ingredients were diluted in acetone to give a concentration which corresponds to the desired quantity of a.i./m^2. A 1 ml quantity of the solution was applied by pipette onto the 15 cm×15 cm surfaces without treating the outer edge of 1 cm.
(§1) Ten 3 day old Culex quinquefasciatus mosquitoes were exposed to each treatment for 3 minutes under a perforated petri dish, and then a clean untreated white paper index card was moved between treated surface and petri dish. A water-soaked cotton pad was applied immediately after.
Each test consisted of three replicates (three batches of ten mosquitoes were exposed for three minutes to the same surface, each one hour later), of which the mean values are calculated.
The test insects were Culex quinquefasciatus (adults, 3 days old). The compositions were evaluated for their ability to provide effective knock down after 3, 9, 15, and 30 minutes, 1, 2, 3, 4 and 24 hours (mortality). The experiments were performed in triplicate on glazed tile, but not repeated on wood.
Test Insects are Culex quinquefasciatus (adults, 3 days old). The Application provides the technical compounds were dissolved in acetone and applied as 1 ml solutions onto glazed tiles (15 cm×15 cm). An evaluation is provided at knock down after 3, 9, 15, and 30 minutes, 1, 2, 3, 4 and 24 hours (mortality). There are 3 replicates.
Test Insects: Culex quinquefasciatus (adults, 3 days old)
Application: The technical compounds were dissolved in acetone and applied as 1 ml solutions onto glazed tiles (15 cm×15 cm).
Evaluation: Knock down after 3, 9, 15, and 30 minutes, 1, 2, 3, 4 and 24 hours (mortality) […]
Application: The active ingredients were applied as 1 ml acetone solutions onto glazed tiles (15 cm×15 cm) […]
as §1, with “For the mosquitoes, the USDA Petri Dish Method is used. Ten” for “Ten”, “are” for “were”, “dish” for “dish,”, “is” for “was”, “after. […]” for “after.”

[4] = tested on: Musca domestica, resistant strain Reichswald; assay: Efficacy of formulations on surfaces (glazed/unglazed tiles), house flies, continuous exposure; type: in vivo; conditions: Table 115; 0.002% = 1 mg DTM/m^2 on glazed tiles; EC formulation; continuous exposure
Experimental: (§2) All surfaces were provided with talcum-coated glass rings (diameter 9.5 cm, height 5.5 cm) one day later.
(§3) The test insects were anesthetized with CO2, 20 individuals were placed onto the treated surfaces and the glass ring was covered with wire gauze ring. […]
(§4) Each test consisted of at least one replicate and any additional replicates are noted.
(§5) Test Insects: House flies (Musca domestica) of both sexes, susceptible strain WHO(N) and resistant strain Reichswald
(§6) Evaluation: Mortality was evaluated cumulatively at different times. […]
(§7) Test Insects: Culex quinquefasciatus (adults) (3 minutes exposure time according to USDA Petri Dish Method), Musca domestica (adults), susceptible and resistant strain, Blattella germanica (males), Cimex lectularius (adults) (all: continuous exposure time)
(§8) Application: The EC formulation (diluted with water 1:9) were applied as 0.85 ml solutions onto glazed tiles (15 cm×15 cm)

[5] = tested on: Musca domestica, susceptible strain WHO(N); assay: as above; type: in vivo; conditions: Table 114; 0.002% = 1 mg DTM/m^2 on glazed tiles; EC formulation; continuous exposure
Experimental: A flat fan nozzle (type SS 8003-E) in a spray cabin was moved automatically over a defined area where the solutions were sprayed very evenly onto the surfaces. The formulation was mixed with water to give a concentration which corresponded to the desired quantity of a.i./m^2. A defined quantity of this solution was sprayed onto the area (nominal 350 liter/ha=0.77 ml per surface).
as §2
The test insects were anesthetized with CO2, 20 individuals were placed onto the treated surfaces and the glass ring was covered with wire gauze ring.
Knock down was determined after 15 and 30′, 1, 2, 4 and 6 hours, mortality after 1 day exposure.
as §4, §5, §6, §7, §8
(§9) Evaluation: Knock down after 15, and 30 minutes, 1, 2, 3, 4, 6 and 24 hours (mortality)
(§10) Test Insects: Culex quinquefasciatus (adults, susceptible) (3 minutes exposure time according to USDA Petri Dish Method), Musca domestica (adults, susceptible and resistant), Blattella germanica (males, susceptible) (both: continuous exposure time)
(§11) Formulations: Insecticide with or without 10% Compound A (as EC), to be diluted with water (1 part formulation+9 parts water)
Evaluation: Knock down after 3, 9 (mosquitoes only), 15, and 30 minutes, 1, 2, 3, 4 and 24 hours (mortality) […]

[6] = tested on: Cimex lectularius (adults); assay: Efficacy on glazed tiles (acetone solutions or EC formulations), continuous exposure; type: in vivo; conditions: on tiles, insecticide alone (imidacloprid 50 mg/m^2, Bendiocarb 50 mg/m^2, Ethiprole 10 mg/m^2, DTM 1 mg/m^2), no Compound A
Experimental: as §7, §8, §9
Test Insects: Culex quinquefasciatus (adults) (3 minutes exposure time according to USDA Petri Dish Method), Cimex lectularius (adults), Acheta domesticus (middle nymphs) (both: continuous exposure time)
Application: The active ingredients were applied as 1 ml acetone solutions onto glazed tiles (15 cm×15 cm)
(§12) Evaluation: Knock down after 3, 9 (mosquitoes only), 15, and 30 minutes, 1, 2, 3, 4 and 24 hours (mortality)
Test Insects: Culex quinquefasciatus (adults) (3 minutes exposure time according to USDA Petri Dish Method), Cimex lectularius (adults), (continuous exposure time)
Test Insects: Cimex lectularius, Culex quinquefasciatus, Musca domestica (all adults, susceptible strains)
Application: The active ingredients were applied as 1 ml acetone solutions onto glazed tiles (15 cm×15 cm), continuous exposure time

[7] = tested on: Blattella germanica (males, susceptible); assay: Efficacy of EC formulations on glazed/unglazed tiles, continuous exposure; type: in vivo; conditions: 0.002% = 1 mg DTM/m^2 on glazed tiles, EC formulation
Experimental: as §2, §3
Each test consisted of at least one replicate and any additional replicates are noted. […]
as §10, §11
Application: 1 ml of the diluted formulations was applied by pipette onto glazed tiles (15×15 cm)
as §12

C/C(=N\C#N)N(C)Cc1ccc(Cl)nc1 [acetamiprid]
Likelihood of Direct Insect Cuticular Penetration [1]: Slow (classified as “SLOW” when the compound has a Log P value of about <2.0) | Log P [2]: 0.8

CCc1nn(C)c(C(=O)NCc2ccc(C(C)(C)C)cc2)c1Cl [tebufenpyrad]
Likelihood of Direct Insect Cuticular Penetration [1]: Fast (classified as “FAST” when it has a Log P value of about >4.0) | Log P [2]: 4.9

abamectin
Likelihood of Direct Insect Cuticular Penetration [1]: Fast (classified as “FAST” when it has a Log P value of about >4.0) | Log P [2]: 4.4

pyrethrin
Likelihood of Direct Insect Cuticular Penetration [1]: Fast (classified as “FAST” when it has a Log P value of about >4.0) | Log P [2]: 4.3

COC(=O)N(C(=O)N1CO[C@@]2(C(=O)OC)Cc3cc(Cl)ccc3C2=N1)c1ccc(OC(F)(F)F)cc1 [indoxacarb]
Likelihood of Direct Insect Cuticular Penetration [1]: Fast (classified as “FAST” when it has a Log P value of about >4.0) | Log P [2]: 4.6

COC(C)(C)CCC[C@H](C)C/C=C/C(C)=C/C(=O)OC(C)C (racemic) [methoprene]
Likelihood of Direct Insect Cuticular Penetration [1]: Fast (classified as “FAST” when it has a Log P value of about >4.0) | Log P [2]: >6.0

spinosad
Likelihood of Direct Insect Cuticular Penetration [1]: Intermediate-Fast | Log P [2]: 2.8-5.2

CCC(C)(C)C(=O)OC1=C(c2ccc(Cl)cc2Cl)C(=O)OC12CCCCC2 [spirodiclofen]
Likelihood of Direct Insect Cuticular Penetration [1]: Fast (classified as “FAST” when it has a Log P value of about >4.0) | Log P [2]: 5.8

O=C(NC(=O)c1c(F)cccc1F)Nc1cc(Cl)c(OC(F)(F)C(F)C(F)(F)F)c(Cl)c1F (stereo not shown) [noviflumuron]
Likelihood of Direct Insect Cuticular Penetration [1]: Fast (classified as “FAST” when it has a Log P value of about >4.0) | Log P [2]: 4.9

Cc1c(COC(=O)[C@@H]2[C@H](/C=C(\Cl)C(F)(F)F)C2(C)C)cccc1-c1ccccc1 (racemic) [bifenthrin]
Likelihood of Direct Insect Cuticular Penetration [1]: Fast (classified as “FAST” when it has a Log P value of about >4.0) | Log P [2]: 6.0

CCOC(=O)NCCOc1ccc(Oc2ccccc2)cc1 [fenoxycarb]
Likelihood of Direct Insect Cuticular Penetration [1]: Fast (classified as “FAST” when it has a Log P value of about >4.0) | Log P [2]: 4.1

CCNS(=O)(=O)C(F)(F)C(F)(F)C(F)(F)C(F)(F)C(F)(F)C(F)(F)C(F)(F)C(F)(F)F [sulfluramid]
Likelihood of Direct Insect Cuticular Penetration [1]: Fast (classified as “FAST” when it has a Log P value of about >4.0) | Log P [2]: >6.8

CN1COCN(Cc2cnc(Cl)s2)/C1=N\[N+](=O)[O-] [thiamethoxam]
Likelihood of Direct Insect Cuticular Penetration [1]: Slow (classified as “SLOW” when the compound has a Log P value of about <2.0) | Log P [2]: 0.1

N#Cc1ccc(CC(=NNC(=O)Nc2ccc(OC(F)(F)F)cc2)c2cccc(C(F)(F)F)c2)cc1 (mixture of isomers) [metaflumizone]
Likelihood of Direct Insect Cuticular Penetration [1]: Fast (classified as “FAST” when it has a Log P value of about >4.0) | Log P [2]: 5.1

CS/C(C)=N\OC(=O)N(C)SN(C)C(=O)O/N=C(\C)SC [thiodicarb]
Likelihood of Direct Insect Cuticular Penetration [1]: Slow (classified as “SLOW” when the compound has a Log P value of about <2.0) | Log P [2]: 1.6

CC1(C)[C@H](C(=O)O[C@H](C#N)c2cccc(Oc3ccccc3)c2)[C@@H]1C=C(Br)Br [DTM]
% KD and Mortality 15′ [3]: 0% | % KD and Mortality 30′ [3]: 0% | % KD and Mortality 1 h [3]: 10% | % KD and Mortality 2 h [3]: 10% | % KD and Mortality 3 h [3]: 10% | % KD and Mortality 4 h [3]: 10% | % KD and Mortality 6 h [3]: 20% | % KD and Mortality 24 h [3]: 80% | % KD and Mortality 15′ [4]: 0% | % KD and Mortality 30′ [4]: 0% | % KD and Mortality 1 h [4]: 0% | % KD and Mortality 2 h [4]: 0% | % KD and Mortality 3 h [4]: 0% | % KD and Mortality 4 h [4]: 0% | % KD and Mortality 6 h [4]: 0% | % KD and Mortality 24 h [4]: 5% | % KD and Mortality 15′ [5]: 10% | % KD and Mortality 30′ [5]: 85% | % KD and Mortality 1 h [5]: 95% | % KD and Mortality 2 h [5]: 100% | % KD and Mortality 3 h [5]: 100% | % KD and Mortality 4 h [5]: 100% | % KD and Mortality 6 h [5]: 100% | % KD and Mortality 24 h [5]: 100% | % KD and Mortality ([6]; 15′): 0% | % KD and Mortality ([6]; 30′): 0% | % KD and Mortality ([6]; 1 h): 0% | % KD and Mortality ([6]; 2 h): 10% | % KD and Mortality ([6]; 3 h): 80% | % KD and Mortality ([6]; 4 h): 100% | % KD and Mortality ([6]; 6 h): 100% | % KD and Mortality ([6]; 24 h): 100% | % KD and Mortality 15′ [7]: 0% | % KD and Mortality 30′ [7]: 40% | % KD and Mortality 1 h [7]: 100% | % KD and Mortality 2 h [7]: 100% | % KD and Mortality 3 h [7]: 100% | % KD and Mortality 4 h [7]: 100% | % KD and Mortality 6 h [7]: 100% | % KD and Mortality 24 h [7]: 100%
